Earlier results, collected in article PMC10002517, “Inhibition of Transglutaminase 2 as a Therapeutic Strategy in Celiac Disease—In Vitro Studies in Intestinal Cells and Duodenal Biopsies” (International Journal of Molecular Sciences, 2023).

Legend:
[1] = system: epithelial infiltration of CD8+ T cells and mucosal damage; details: cited from earlier work
Excerpt: (§1) Even though our results underline the significance of TG2 inhibition, further research is needed to investigate the effects of those inhibitors on gliadin-induced inflammation. In recent studies, these inflammatory mechanisms were only partially mitigated by inhibition of TG2.

actin rearrangement = details: cited from earlier work
Excerpt: as §1

## CC(=O)CSc1n(C)cc[n+]1C.[Cl-] [R283]
[1]
  effect on epithelial infiltration of CD8+ T cells and mucosal damage: did not mitigate
Actin rearrangement
  effect on actin rearrangement after treatment with P31-43: did not prevent actin rearrangement
